Data set [1] can be described thus: Apparent permeability of the compound from apical to basolateral side in human Caco-2 cells incubated for 2 hrs by LC-MS/MS analysis. As to conditions: caco-2, 2 h. On the technique in general: Caco-2 monolayers are a common model of the intestinal barrier.
Data set [2] in a line: Metabolic stability in Wistar Han rat hepatocyte assessed as blood clearance at 1 uM incubated upto 90 mins by LC-MS/MS analysis. Conditions: hepatocytes. The class given is ADME, cell-based.
Data set [3] is described as follows: Apparent permeability of the compound from basolateral to apical side in human Caco-2 cells incubated for 2 hrs by LC-MS/MS analysis. The class given is ADME, cell-based. As to conditions: caco-2, 2 h.
A short description of data set [4]: Metabolic stability in human liver microsomes assessed as blood clearance incubated upto 60 mins by LC-MS/MS analysis. The class given is ADME, Microsome.
Data set [5] can be described thus: Aqueous solubility of compound in PBS buffer at pH 6.5 incubated for 24 hrs by HPLC-UV analysis. The data set is classed as physicochemical. As to conditions: pH 6.5, 24 h.
The nature of data set [6]: Metabolic stability in human liver microsomes assessed as maximal oral bioavailability incubated upto 60 mins by LC-MS/MS analysis. The data set is classed as ADME, Microsome. For orientation: Liver microsomes are a subcellular fraction often used to study metabolism.
The nature of data set [7]: Lipophilicity, logD of compound at pH 7.5. The class given is physicochemical. As to conditions: buffer.
Data set [8] concerns the target T1, Branched-chain-amino-acid aminotransferase, cytosolic (Homo sapiens, UniProt P54687).
T1 sequence (P54687 whole entry): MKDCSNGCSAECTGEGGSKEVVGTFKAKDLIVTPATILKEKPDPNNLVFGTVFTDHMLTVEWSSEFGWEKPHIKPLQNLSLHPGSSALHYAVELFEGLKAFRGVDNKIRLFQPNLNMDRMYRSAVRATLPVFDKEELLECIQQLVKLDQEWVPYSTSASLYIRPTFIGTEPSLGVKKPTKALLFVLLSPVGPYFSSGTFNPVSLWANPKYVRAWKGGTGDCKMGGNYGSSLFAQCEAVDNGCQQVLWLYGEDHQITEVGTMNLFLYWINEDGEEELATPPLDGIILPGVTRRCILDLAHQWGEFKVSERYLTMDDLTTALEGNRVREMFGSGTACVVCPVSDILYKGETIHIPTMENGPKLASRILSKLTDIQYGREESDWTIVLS
In words: biochemical.
Description: Inhibition of N-terminal his-tagged human recombinant BCAT1 expressed in Escherichia coli BL21(DE3) cells using leucine and alpha-KG as substrate in presence of NADH by fluorescence assay

In data set [9] the target is T2, Branched-chain-amino-acid aminotransferase, mitochondrial (Homo sapiens, UniProt O15382).
T2 sequence (O15382 whole entry): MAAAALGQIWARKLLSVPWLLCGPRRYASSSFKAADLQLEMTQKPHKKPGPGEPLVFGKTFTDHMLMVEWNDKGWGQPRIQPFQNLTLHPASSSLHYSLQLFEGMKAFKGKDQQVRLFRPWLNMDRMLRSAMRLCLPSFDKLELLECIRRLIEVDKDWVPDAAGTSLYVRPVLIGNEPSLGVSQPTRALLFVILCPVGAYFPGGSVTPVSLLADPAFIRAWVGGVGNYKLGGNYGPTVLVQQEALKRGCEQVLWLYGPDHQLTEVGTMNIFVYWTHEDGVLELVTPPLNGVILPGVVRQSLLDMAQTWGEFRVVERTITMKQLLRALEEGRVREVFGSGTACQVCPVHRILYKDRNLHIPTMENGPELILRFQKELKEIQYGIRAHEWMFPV
In words: Inhibition of human recombinant BCAT2 using leucine and alpha-KG as substrate in presence of NADH by fluorescence assay.

A short description of data set [10]: Upregulation of BCAA expression in human MDA-MB-231 cells. The data set is classed as functional, cell-based.

Consider `COc1cc(C#N)c(Oc2ccccc2C)cc1-n1c(=O)cc(S(C)(=O)=O)[nH]c1=O`, for which the Papp in [1] amounted to 2.9 ×10⁻⁶ cm/s.

On to `COc1cc(C#N)c(Oc2ccccc2C)cc1-n1c(=O)cc(C(F)(F)c2ccccc2)[nH]c1=O`, for which the apparent permeability coefficient (Papp) in data set [1] came out at 32.9 ×10⁻⁶ cm/s.

Take `COc1cc(C#N)c(Oc2ccccc2C)cc1-n1c(=O)cc(C(N)=O)[nH]c1=O`: the Papp in data set [1] was determined as 1.1 ×10⁻⁶ cm/s.

As to `Cc1ccccc1Oc1cc(-n2c(=O)cc(C(F)(F)F)[nH]c2=O)c2ccccc2c1` [BAY-771], the CLhep predicted at […], 1 µM in data set [2] is 41.7 mL/min/kg. Besides, the Papp in data set [3] worked out at 17.1 ×10⁻⁶ cm/s; in data set [1], 27.5 ×10⁻⁶ cm/s. For the same molecule, the CLhep predicted in data set [4] is 13.2 mL/min/kg. In addition, the solubility in data set [5] was > 412 µg/mL. Also, the Fh at 1 h in data set [6] is 40%. In data set [7], this molecule gave a logD of 2.2.

`COc1cc(C#N)c(Oc2ccccc2C)cc1-n1c(=O)cc(C(F)(F)F)[nH]c1=O`: in data set [1], the Papp was 2.3 ×10⁻⁶ cm/s.

As to `COc1cc(C#N)c(Oc2ccccc2C)cc1-n1c(=O)cc(C(F)(F)Cl)[nH]c1=O`, the Papp in data set [1] was 3 ×10⁻⁶ cm/s.

For `Cc1ccccc1Oc1cc(-n2c(=O)cc(C(F)(F)F)[nH]c2=O)c(C)cc1C#N`, the apparent permeability (Papp) in [1] turned out to be 4.8 ×10⁻⁶ cm/s.

Take `COc1cc(C#N)c(Oc2ccccc2C)cc1-n1c(=O)cc(-c2ccccc2)[nH]c1=O`: the Papp in [1] was determined as 28.4 ×10⁻⁶ cm/s.

In data set [8], `CNC(=O)c1ccn2c(-n3c(=O)cc(C(F)(F)F)[nH]c3=O)c(-c3ccccn3)nc2c1` came in with a 50% inhibitory concentration (IC50) of 0.85 µM.

Regarding `COc1cc(OC)c(-n2c(=O)cc(C(F)(F)F)[nH]c2=O)cc1Cl`, the IC50 was determined as 3.3 µM in [8] and 20 µM in data set [9].

On to `COc1cc(Cl)c(Oc2ccccc2C)cc1-n1c(=O)cc(C(F)(F)F)[nH]c1=O`, for which the Papp in data set [1] was found to be 19.9 ×10⁻⁶ cm/s.

With `Cc1ccccc1Oc1cc(-n2c(=O)cc(C(F)(F)F)[nH]c2=O)c(F)cc1C#N`, in data set [9], the half-inhibitory concentration (IC50) was 13.3 µM.

Consider `COc1cc(C#N)c(Oc2ccccc2C)cc1-n1c(=O)cc(Br)[nH]c1=O`, for which the Papp in [1] is 7.1 ×10⁻⁶ cm/s.

In data set [10], `CCCc1cc(=O)n2nc(NCc3c(F)cc(Cl)cc3F)c(C#N)c2[nH]1` came in with an IC50 of 564 µM.

As for `COc1cc(C#N)c(Oc2ccccc2C)cc1-n1c(=O)cc(S(=O)(=O)c2ccccc2)[nH]c1=O`, the apparent permeability (Papp) in data set [1] turned out to be 0.05 ×10⁻⁶ cm/s.

For `N#Cc1cc(F)c(-n2c(=O)cc(C(F)(F)F)[nH]c2=O)cc1Oc1ccccc1`, the concentration for half-maximal inhibition (IC50) in data set [9] is 13.4 µM.

As to `COc1cc(C#N)c(Oc2ccccc2C)cc1-n1c(=O)cc(C(F)(F)C(F)(F)F)[nH]c1=O`, in data set [1], the Papp is 3.3 ×10⁻⁶ cm/s.

As a reminder, the Papp is a coefficient for how fast a substance crosses the barrier. A word on the solubility: it is the dissolved amount per volume that the medium holds. One may read the logD as the decadic logarithm of the distribution of all forms, ionised or not, between an organic phase and buffer at a given pH. What is called IC50 is the concentration at which inhibition is half-maximal.

Values taken from ChEMBL document CHEMBL5214979 (J Med Chem, 2022).
